According to patent EP4703357A1, “TRIAZOLYL-CONTAINING COMPOUNDS” (Chia Tai Tianqing Pharmaceutical Group Co., Ltd., priority 2023, dated 2024):
Where two headings read alike, the source gives them in different places. One block for each molecule: values may come before it.

Assays:
[1] = In vitro liver microsomal stability, human; format: in vitro ADME; conditions: human liver microsome 0.5 mg/mL, NADPH, 37 °C, 1 h
Experimental: (§1) Liver microsome incubation samples were prepared by mixing a PBS buffer (pH = 7.4), a liver microsome solution (0.5 mg/mL), a test compound, and an NADPH + MgCl2 solution, and incubated at 37 °C and 300 rpm for 1 h. Zero-hour samples were prepared by mixing a PBS buffer (pH = 7.4), a liver microsome solution (0.5 mg/mL), and a test compound. An acetonitrile solution containing an internal standard was added to the samples, and supernatants were prepared by protein precipitation, diluted, and then assayed by LC/MS/MS. Table 17. In vitro metabolic stability of related compounds in liver microsomes of various species

[2] = system: OCI-LY10 human diffuse large B-cell lymphoma NOD-SCID mouse subcutaneous xenograft tumor model; assay: Efficacy in OCI-LY10 subcutaneous xenograft tumor model; format: in vivo, NOD-SCID mice; conditions: for TGI(%): by tumor weight
From the text: Efficacy evaluation in OCI-LY10 human diffuse large B-cell lymphoma NOD-SCID mouse subcutaneous xenograft tumor model • (1) SPF female NOD-SCID mice (source: Jiangsu Huachuang Xinnuo Pharmaceutical Technology Co., Ltd.) were inoculated subcutaneously at the right side armpit with OCI-LY10 human diffuse large B-cell lymphoma cells at 1 × 10^7 cells/mouse. When the mean tumor volume reached about 200 mm^3, the animals were divided into a control group (vehicle control group) and treatment groups (compound groups).
The administration dose included 1 mg/kg, 2 mg/kg, and 4 mg/kg, and the administration frequency was once daily. The day of grouping was defined as day 0, and intragastric administration was started on day 0 for 21 consecutive days.
Alternatively, the administration dose was 4 mg/kg, and the administration frequency was 5 times per week. The day of grouping was defined as day 0, and intragastric administration was started on day 0 five times per week for two consecutive weeks.
The tumor volume was measured once every 3 days, and meanwhile, the mice were weighed and the data were recorded; the general behavior of the mice was observed and recorded every day. After the experiment was completed, the tumors were removed, weighed, and photographed.
The detection index and the calculation formula are as follows: • Tumor volume TV (mm^3) = 1/2 × (a × b^2), wherein a is the long diameter of the tumor, and b is the short diameter of the tumor; • Relative tumor volume RTV = TVt/TV0, wherein TV0 is the tumor volume on day 0, and TVt is the tumor volume at each measurement; • Relative tumor proliferation rate T/C (%) = (TRTV/CRTV) × 100%, wherein TRTV is RTV of the treatment group, and CRTV is RTV of the vehicle control group; • Tumor growth inhibition rate TGI (%) = (1 - TW/TW0) × 100%; wherein TW is the tumor weight of the treatment group, and TW0 is the tumor weight of the vehicle control group; • Weight change rate WCR (%) = (Wtt - Wt0)/Wt0 × 100%, wherein Wt0 is the body weight of the mouse on day 0, and Wtt is the body weight of the mouse at each measurement.

[3] = In vitro liver microsomal stability, mouse; format: in vitro ADME; conditions: mouse liver microsome 0.5 mg/mL, NADPH, 37 °C, 1 h
Experimental: as §1

[4] = Mouse pharmacokinetics; format: in vivo, ICR mice; conditions: ICR, plasma
[5] = Mouse pharmacokinetics; format: in vivo; conditions: ICR, plasma, po, 3 mg/kg, Mice administered intragastrically 3 mpk
Experimental: ICR mice weighing 18-22 g were randomized into groups of 9 mice per group after 3-5 days of acclimatization and then administered intragastrically at a dose of 3 mg/kg.
Plasma samples to be tested were prepared by taking blood from the orbit at time points of 15 min, 30 min, 1 h, 2 h, 4 h, 6 h, 8 h, 10 h, and 24 h.
20 µL of each plasma sample to be tested and a standard curve sample were taken, and an acetonitrile solution containing an internal standard was added. A supernatant was obtained by protein precipitation, diluted, and then assayed by LC/MS/MS.
Pharmacokinetic parameters were fitted using a non-compartmental model.

[6] = system: Jurkat cells; assay: Inhibitory activity on Jurkat cell proliferation (CCK-8); format: cell-based; conditions: Homo sapiens, 72 h incubation
Experimental: (§2) Jurkat cells in a good growth state were collected into a centrifuge tube, adjusted to a cell density of 5 × 10^4 cells/mL, and seeded in a 96-well plate (100 µL/well). The cells were incubated overnight in a cell incubator. Compounds were added using a nanoliter pipettor such that the final concentrations of the compounds were 1000 nM-0.46 nM (the addition was performed in duplicate). Meanwhile, a control was set. After another 72 h of incubation in the cell incubator, the assay reagent CCK-8 (manufacturer: Dojindo Laboratories, Beijing; 10 µL/well) was added. After 2 h of incubation in the cell incubator, absorbance was measured at 450 nm on an Envision microplate reader. A four-parameter analysis was performed, a dose-response curve was fit, and IC50 was calculated.

[7] = system: OCI-LY10 cells; assay: Inhibitory activity on OCI-LY10 cell proliferation (CCK-8); format: cell-based; conditions: Homo sapiens, 72 h incubation
Experimental: as §2, with “OCI-LY10 cells” for “Jurkat cells”, “of 9” for “of 5”

[8] = Table 19, 2mg/kg intragastric, Day 21 of assay
[9] = 1 mg/kg, Mice administered by single intravenous injection 1 mpk
[10] = Table 19, 4mg/kg intragastric, Day 21 of assay
[11] = Table 20, 4mg/kg intragastric, Day 18 of assay

Human liver microsome Residuals at 60 min (%) [1]: 94.26% | Weight change rate (%) (mean ± SD) ([2]; Table 19, 2mg/kg intragastric, Day 23 of assay): -2.0±6.5% | Mouse liver microsome Residuals at 60 min (%) [3]: 99.28% | AUC(0-inf) [4, 9]: 1630 ng·h/mL | clearance [4, 9]: 10.2 mL/min/kg | half-life [4, 9]: 181 min | AUC(0-t) ([4]; 1 mg/kg, Mice administered by single intravenous injection 1 mpk, read-out: AUC (0-24)): 1630 ng·h/mL | AUC(0-inf) ([4]; po, 3 mg/kg, Mice administered intragastrically 3 mpk): 4760 ng·h/mL | Cmax [5]: 871 ng/mL | Tmax [5]: 1 h | half-life [5]: 141 min | AUC(0-t) ([5]; read-out: AUC (0-24)): 4750 ng·h/mL
SMILES: Cc1ccc(/C(=C\n2cnc(-c3cc(C(F)(F)F)nc(C(F)(F)F)c3)n2)C(N)=O)cn1 [21(21-A)]
RTV (mean±SD) [2, 8]: 2.4±0.4 | T/C(%) [2, 8]: 22.2% | TV(mm^3) (mean±SD) [2, 8]: 520±178 mm^3 | TGI(%) ([2]; Table 19, 2mg/kg intragastric, Day 23 of assay, * p < 0.05 vs control): 89.3%*

Human liver microsome Residuals at 60 min (%) [1]: 110.48% | Weight change rate (%) (mean ± SD) ([2]; Table 19, 4mg/kg intragastric, Day 23 of assay): 1.7±5.3% | Mouse liver microsome Residuals at 60 min (%) [3]: 94.66% | IC50 [6]: ≤ 20 nM | IC50 [7]: ≤ 40 nM
SMILES: NC(=O)/C(=C/n1cnc(-c2cc(C(F)(F)F)nc(C(F)(F)F)c2)n1)c1cnc2cccnc2c1 [25(25-A)]
RTV (mean±SD) [2, 10]: 1.8±0.6 | T/C(%) [2, 10]: 16.7% | TV(mm^3) (mean±SD) [2, 10]: 360±105 mm^3 | TGI(%) ([2]; Table 19, 4mg/kg intragastric, Day 23 of assay, * p < 0.05 vs control): 91.1%*

Human liver microsome Residuals at 60 min (%) [1]: 86.18% | Weight change rate (%) (mean ± SD) ([2]; Table 20, 4mg/kg intragastric, Day 21 of assay): 0.6±8.1% | Mouse liver microsome Residuals at 60 min (%) [3]: 89.63% | IC50 [6]: ≤ 20 nM | IC50 [7]: ≤ 40 nM
SMILES: NC(=O)/C(=C/n1cnc(-c2cc(C(F)(F)F)nc(C(F)(F)F)c2)n1)c1cnc2ccccc2c1 [11(11-A)]
RTV (mean±SD) [2, 11]: 1.7±0.2 | T/C(%) [2, 11]: 21.8% | TV(mm^3) (mean±SD) [2, 11]: 326±52 mm^3 | TGI(%) ([2]; Table 20, 4mg/kg intragastric, Day 21 of assay, ** p < 0.01 vs control): 89.7%**
